The target of assay [1] is T1, human SSTR5 (Homo sapiens, UniProt P35346).
T1 construct: expressed in transfected cells; host or cells: CHO(dhfr-) cells, clone SSTR5-32-4, plasmid pA-1-11-SSTR5 (vector pAKKO-111)
The assay can be described thus: [125I]-somatostatin binding inhibition, SSTR5 CHO cell membrane fraction. Conditions: 25° C., 60 minutes. The method, then: CHO(dhfr^−) cells (1×10^6 cells) were cultured on HAM F12 medium containing 10% fetal bovine serum in a dish with a diameter of 8 cm for 24 hours. Into these cells was introduced 10 μg of the human SSTR5 cDNA expression plasmid pA-1-11-SSTR5 obtained as described above in (2) by the calcium phosphate method (Cell Phect Transfection Kit; Pharmacia). At 24 hours after transfection, the medium was exchanged for DMEM containing 10% dialyzed fetal bovine serum, and cells forming a colony on this medium (namely DHFR^+ cells) were selected. Further, the cells selected were treated by the limiting dilution method for cloning from a single cell, and the cells thus cloned were measured for their somatostatin receptor protein expression ability by the binding assay described in Reference Example 1 (3). In this manner, a cell line with high somatostatin-binding activity. SSTR5-32-4, was selected. […]
The membrane fractions prepared in Reference Example 6 were each diluted to 3 μg/ml with assay buffer. […] After filtration, the radioactivity of [^125I]-somatostatin remaining on the filter paper was measured. For each test substance, the binding inhibition percentage (%) was calculated according to the formula: PBM=(B−NSB)/(B0−NSB)×100 (where PBM: percent maximum binding; B: radioactivity when the test sample is added; B0: maximum bound radioactivity; NSB: non-specifically bound radioactivity). […]

For a further assay, the target named is T2, human SSTR3 (Homo sapiens, UniProt P32745).
T2 construct: expressed in transfected cells; host or cells: CHO(dhfr-) cells, clone SSTR3-15-19, plasmid pA-1-11-SSTR3 (vector pAKKO-111)
The assay can be described thus: cAMP accumulation inhibiting activity in SSTR3 expressing CHO cells (forskolin stimulated). The format is cell-based. Particulars: forskolin 10 μM, CHO cells SSTR3-15-19; read-out: ED50, inhibition of intracellular cAMP accumulation, SSTR3. The method, then:
(§1) For measuring the intracellular accumulations of cyclic adenosine 3′,5′-monophosphate (cAMP), the human somatostatin receptor expressing cell lines SSTR2-HS5-9, SSTR3-15-19, SSTR4-1-2 and SSTR5-32-4 respectively described in Reference Example 2 (3), Reference Example 3 (3), Reference Example 4 (3) and Reference Example 5 (3) were multiplied on 24-well plates until confluency. Said cells were washed with two 1-ml portions of medium A [Dulbecco-'s modified Eagle's medium (DMEM), 20 mM 2-[4-(2-hydroxyethyl)-1-piperazinyl]ethanesulfonic acid (HEPES) (pH. 7.5), 0.2% BSA, 0.2 mM 3-isobutyl-1-methylxanthine (IBMX)] and then 400 μl of medium A was added to each well and incubation was carried out at 37° C. for 1 hour. To each well were added 50 μl of a hCS-15 or hCS-17 solution (each diluted to a concentration 10 times the final concentration with medium A) and 50 μl of a forskolin solution (final concentration: 10 μM), and incubation was carried out at 37° C. for 30 minutes. The cells were washed with two 1-ml portions of medium A and then 500 μl of medium A and 100 μL of 20% aqueous perchloric acid solution were added to each well, followed by standing at 4° C. for 20 minutes for cell lysis. […] The amount of cAMP contained in this extract was determined using an Amersham's kit (cAMP EIA system).

For another assay, the target named is T3, human SSTR4 (Homo sapiens, UniProt P31391).
T3 construct: expressed in transfected cells; host or cells: CHO(dhfr-) cells, clone SSTR4-1-2, plasmid pA-1-11-SSTR4 (vector pAKKO-111)
As to the kind of experiment: cAMP accumulation inhibiting activity in SSTR4 expressing CHO cells (forskolin stimulated). Conditions: forskolin 10 μM, CHO cells SSTR4-1-2; read-out: ED50, inhibition of intracellular cAMP accumulation, SSTR4. The format is cell-based. The method, then:
as §1

Assay [2] concerns the target T1, human SSTR5. The assay can be described thus: cAMP accumulation inhibiting activity in SSTR5 expressing CHO cells (forskolin stimulated). In kind it is cell-based. Conditions: forskolin 10 μM, CHO cells SSTR5-32-4; read-out: ED50, inhibition of intracellular cAMP accumulation, SSTR5. The method, then: as §1

Here are results for two compounds from patent US7074761B1, “Peptides and production and use thereof” (Takeda Chemical Ind., Ltd., priority 1996, dated 2006).

Where a SMILES comes first, the peptide text is derived from it. Bridges are numbered along the chain shown (N, C = ends).

T1 sequence (P35346 whole entry): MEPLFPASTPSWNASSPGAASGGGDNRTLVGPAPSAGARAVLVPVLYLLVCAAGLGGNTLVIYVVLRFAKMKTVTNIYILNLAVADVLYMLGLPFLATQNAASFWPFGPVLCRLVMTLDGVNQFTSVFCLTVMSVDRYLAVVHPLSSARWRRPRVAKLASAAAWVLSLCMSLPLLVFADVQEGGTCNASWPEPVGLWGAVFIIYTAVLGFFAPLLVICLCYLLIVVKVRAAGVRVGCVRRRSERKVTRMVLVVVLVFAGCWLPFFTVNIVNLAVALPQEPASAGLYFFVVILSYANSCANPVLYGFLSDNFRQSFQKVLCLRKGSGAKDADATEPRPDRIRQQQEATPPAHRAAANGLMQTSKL
T2 sequence (P32745 whole entry): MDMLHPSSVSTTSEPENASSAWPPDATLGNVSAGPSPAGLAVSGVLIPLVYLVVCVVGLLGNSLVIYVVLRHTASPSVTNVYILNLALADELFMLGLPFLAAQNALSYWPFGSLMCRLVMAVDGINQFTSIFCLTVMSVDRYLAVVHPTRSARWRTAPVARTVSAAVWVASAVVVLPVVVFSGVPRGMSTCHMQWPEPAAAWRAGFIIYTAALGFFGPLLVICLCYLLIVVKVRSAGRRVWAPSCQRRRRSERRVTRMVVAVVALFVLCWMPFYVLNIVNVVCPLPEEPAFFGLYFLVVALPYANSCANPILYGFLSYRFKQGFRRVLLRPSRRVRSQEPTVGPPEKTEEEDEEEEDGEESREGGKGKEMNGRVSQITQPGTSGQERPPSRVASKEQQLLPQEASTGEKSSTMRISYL
T3 sequence (P31391 whole entry): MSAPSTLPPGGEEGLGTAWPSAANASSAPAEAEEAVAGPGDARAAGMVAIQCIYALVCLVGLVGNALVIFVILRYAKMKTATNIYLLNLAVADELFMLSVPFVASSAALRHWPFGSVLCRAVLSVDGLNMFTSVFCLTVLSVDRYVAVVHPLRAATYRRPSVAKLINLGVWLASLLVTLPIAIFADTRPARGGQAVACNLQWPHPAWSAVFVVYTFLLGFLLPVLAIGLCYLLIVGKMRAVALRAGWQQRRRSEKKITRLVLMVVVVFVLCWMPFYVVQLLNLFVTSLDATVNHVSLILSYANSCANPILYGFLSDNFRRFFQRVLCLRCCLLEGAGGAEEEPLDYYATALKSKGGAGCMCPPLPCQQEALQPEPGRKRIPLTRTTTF

Compound `CSCC[C@H](N)C(=O)N1CCC[C@H]1C(=O)N[C@H]1CSSC[C@@H](C(=O)N[C@@H](CCCCN)C(=O)O)NC(=O)[C@H](CO)NC(=O)[C@H](CO)NC(=O)[C@H](Cc2ccccc2)NC(=O)[C@H]([C@@H](C)O)NC(=O)[C@H](CCCCN)NC(=O)[C@H](Cc2c[nH]c3ccccc23)NC(=O)[C@H](Cc2ccccc2)NC(=O)[C@H](Cc2ccccc2)NC(=O)[C@H](CC(N)=O)NC(=O)[C@H](CCCNC(=N)N)NC1=O` [hCS-15] (H-MPCRNFFWKTFSSCK-OH; disulfide 3-14; N-terminus and C-terminus assumed) displayed an IC50 on human SSTR5 [1] of 0.6 nM. For the same compound, the EC50 worked out at 1 nM at human SSTR3, 0.2 nM at human SSTR4 and 0.2 nM on human SSTR5 [2].
As for `CSCC[C@H](NC(=O)[C@H](CCCNC(=N)N)NC(=O)[C@@H](N)CC(=O)O)C(=O)N1CCC[C@H]1C(=O)N[C@H]1CSSC[C@@H](C(=O)N[C@@H](CCCCN)C(=O)O)NC(=O)[C@H](CO)NC(=O)[C@H](CO)NC(=O)[C@H](Cc2ccccc2)NC(=O)[C@H]([C@@H](C)O)NC(=O)[C@H](CCCCN)NC(=O)[C@H](Cc2c[nH]c3ccccc23)NC(=O)[C@H](Cc2ccccc2)NC(=O)[C@H](Cc2ccccc2)NC(=O)[C@H](CC(N)=O)NC(=O)[C@H](CCCNC(=N)N)NC1=O` [hCS-17], the EC50 on human SSTR3 came to 1 nM; at human SSTR5 [2], 0.2 nM.
